# Laboratory results published in patent US9656960B2, “Inhibitors of microsomal triglyceride transfer protein and apo-B secretion” (Surface Logix, Inc., priority 2005, dated 2017).
# Experiments:
# Apo-B [1] = experiment: Apo-B secretion assay in Caco-2 cells (ELISA); type: cell-based; settings: Homo sapiens
# Procedure: (§1) The following protocol is written for HepG2 cells types, but the same or similar protocol may be used with other cell types, such as Caco-2 cells.
# (§2) HepG2 cells were grown in MEM Eagle's medium containing 10% fetal bovine serum with 1% penicillin/streptomycin in an incubator (5% CO2, 100% relative humidity, 37° C.). At ca. 85% confluency, the cells were treated with test compounds (0.2% DMSO) at appropriate concentrations in triplicate. After 24 hour incubation with the test compounds, growth media were collected from each sample. Concentrations for apo-B and apoA1 were determined using ELISA. Mouse anti-human Apo-B and ApoA1 antibody and Alk-phos conjugated secondary antibody (goat) was used in ELISA. Triplicate data in six half-log concentrations were used to calculate an IC50 value for each compound.
# Apo-B [2] = experiment: Apo-B secretion assay in HepG2 cells (ELISA); type: cell-based; settings: Homo sapiens, 24 hour incubation, ELISA of growth media
# Procedure: A test compound is considered to be active if it is active in any of the following screens. The activity of a compound according to the invention can be assessed by measuring inhibition of apo B secretion in HepG2 cells.
# as §1, §2
# ApoA1 [3] = experiment: ApoA1 secretion assay in Caco-2 cells (ELISA); type: cell-based; settings: Homo sapiens
# Procedure: as §1, §2
# ApoA1 [4] = experiment: ApoA1 secretion assay in HepG2 cells (ELISA); type: cell-based; settings: Homo sapiens, 24 hour incubation, ELISA of growth media
# Procedure: as §1, §2
# Caco-2 = experiment: Bidirectional Caco-2 permeability assay; type: in vitro ADME; settings: bidirectional Caco-2 assay, analysis by fluorescence and HPLC
# Procedure: The following table (Table 1) depicts the activity of several compounds of Formula I or II according to the present invention. Permeability was measured in a bidirectional Caco-2 assay with analysis by fluorescence and HPLC.
SMILES,IC50 (Apo-B [1]) [nM],IC50 (Apo-B [2]) [nM],IC50 (ApoA1 [3]) [nM],IC50 (ApoA1 [4]) [nM],Caco-2 (10-6 cm/sec) (Caco-2)
COc1cccc(C(=O)Nc2ccc3c(c2)CCN(C(=O)OC(C)(C)C)C3)c1-c1ccc(C(F)(F)F)cc1 [Compound 15],60,6,> 30000,> 30000,0 10-6 cm/sec
COc1cccc(C(=O)Nc2ccc3c(c2)CCN(C(=O)Oc2ccc(F)cc2)C3)c1-c1ccc(C(F)(F)F)cc1 [Compound 16],11,2.3,> 30000,> 30000,0 10-6 cm/sec
COc1cccc(C(=O)Nc2ccc3c(c2)CCN(c2nc(-c4ccccc4)cs2)C3)c1-c1ccc(C(F)(F)F)cc1 [Compound 14],4400,230,> 30000,> 30000,0 10-6 cm/sec

# The remaining lines, values ahead:
IC50 (Apo-B [1]) [nM],IC50 (Apo-B [2]) [nM],IC50 (ApoA1 [3]) [nM],IC50 (ApoA1 [4]) [nM],Caco-2 (10-6 cm/sec) (Caco-2),SMILES
110,220,> 30000,> 30000,0 10-6 cm/sec,O=C(Nc1ccc2c(c1)CCN(C(=O)OCc1ccccc1)C2)c1ccccc1-c1ccc(C(F)(F)F)cc1 [Compound 12]
40,3,> 30000,> 30000,0 10-6 cm/sec,O=C(Nc1ccc2c(c1)CCN(C(=S)NCc1ccccc1)C2)c1ccccc1-c1ccc(C(F)(F)F)cc1 [Compound 10]
15,30,> 30000,> 30000,30 10-6 cm/sec,COCCCNC(=S)N1CCc2cc(NC(=O)c3ccccc3-c3ccc(C(F)(F)F)cc3)ccc2C1 [Compound 13]
7.7,1.6,> 30000,> 30000,0 10-6 cm/sec,COc1cccc(C(=O)Nc2ccc3c(c2)CCN(C(=O)Oc2ccccc2)C3)c1-c1ccc(C(F)(F)F)cc1 [Compound 11]
16,0.7,> 30000,> 30000,0 10-6 cm/sec,CC(C)Oc1cccc(C(=O)Nc2ccc3c(c2)CCN(C(=O)Oc2ccccc2)C3)c1-c1ccc(C(F)(F)F)cc1 [Compound 17]
